The target of data set [1] is c-Src SH3 domain-GST fusion protein (Gallus gallus, UniProt P00523). In words: Fluorescence polarization direct binding assay, c-Src SH3. Further details: species or system chicken. Here is the method: (§1) Polarization was measured by excitation with vertically polarized light at 485 nm and the fluorescence emission detected at 530 nm in both the vertical and horizontal directions. An average of five measurements were recorded for each well. Samples were equilibrated at room temperature for 25 min before analysis, a time sufficient for the binding reactions to reach equilibrium. The polarization data were fit using Kaleidagraph v3.6 software to Eq. 5, which is derived from first principles without assumptions. […] In this equation, Pobs is the observed polarization value at any given concentration of target protein (GST•SH3 domain). Pmin is the polarization of peptide^Flu at 50 nM in the absence of target protein. Pmax is the maximum polarization of peptide^Flu at saturation with target protein. Kd is the equilibrium dissociation constant. […] Free fits are shown. Kd values were estimated as described.

Data set [2] addresses Fyn SH3 domain-GST fusion protein (Homo sapiens, UniProt P06241). Nature of the data set: Fluorescence polarization direct binding assay, Fyn SH3. Here is the method: (§2) Polarization was measured by excitation with vertically polarized light at 485 nm and the fluorescence emission detected at 530 nm in both the vertical and horizontal directions. An average of five measurements were recorded for each well. Samples were equilibrated at room temperature for 25 min before analysis, a time sufficient for the binding reactions to reach equilibrium. The polarization data were fit using Kaleidagraph v3.6 software to Eq. 5, which is derived from first principles without assumptions. […] In this equation, Pobs is the observed polarization value at any given concentration of target protein (GST•SH3 domain). Pmin is the polarization of peptide^Flu at 50 nM in the absence of target protein. Pmax is the maximum polarization of peptide^Flu at saturation with target protein. Kd is the equilibrium dissociation constant. […] In these cases a lower limit Kd was estimated by setting Pmax equal to the observed polarization at the highest target protein concentration tested, which was often limited by solubility. […] Free fits are shown. Kd values were estimated as described. […] In several cases, the plots of polarization versus [SH3 domain] began to increase at high [SH3 domain] (>50 micromolar), perhaps because of a second binding event. In these cases (indicated by an asterisk (*) in Table 5), data above 50 micromolar target protein was excluded during the curve fits.
(In fluorescence polarisation assays a small probe gives low polarisation when free and higher when bound to something large.)

Data set [3] addresses Lck SH3 domain-GST fusion protein (Homo sapiens, UniProt P06239). In words: Fluorescence polarization direct binding assay, Lck SH3. On the procedure: as §2
Data set [4] addresses Hck SH3 domain-GST fusion protein (Homo sapiens, UniProt P08631). Nature of the data set: Fluorescence polarization direct binding assay, Hck SH3. Here is the method: as §1
Data set [5] concerns the target Lyn SH3 domain-GST fusion protein (Homo sapiens, UniProt P07948). Nature of the data set: Fluorescence polarization direct binding assay, Lyn SH3. Here is the method:
as §2

Data set [6] deals with c-Src SH3^P133L (Gallus gallus, UniProt P00523, P133L). In words: Fluorescence polarization direct binding assay, c-Src SH3^P133L. Set-up: species or system chicken. Here is the method: as §1
Data set [7] is described as follows: Temperature-dependent sedimentation equilibrium of aPP^Y7AP13SV14P, monomer-dimer-tetramer fit. The format is physicochemical. The settings on record: for % monomer: at 30 micromolar total peptide concentration; for ln KA (m): m fixed to 4 (tetramer), PBS. On the procedure:
aPP^Y7AP13SV14P samples were prepared in Dulbecco's PBS buffer (as described above) at concentrations of 45, 90, and 180 micromolar. Sedimentation equilibrium experiments were performed as described above and monitored at 280 nm. Samples were centrifuged to equilibrium at three speeds (42,000, 50,000, and 60,000 rpm) at 5, 10, 15, 20, 25, and 30° C. The rotor containing the samples was agitated manually between temperature runs to redistribute the sample along the length of the cell and checked by an initial scan.
The sedimentation data obtained for aPP^Y7AP13SV14P at each temperature was globally fit to Eq. 2 as described above. […] Therefore, the data from within each temperature set was then globally fit to a monomer-n-mer-m-mer model. Based on the self-association trends of the other aPP variants, in which the folded peptides best fit to a monomer-dimer model and the unfolded peptides fit to a monomer-tetramer model, the values for n and m were fixed to 2 and 4 respectively. Data fit with these parameters and the resulting residuals are presented in FIG. 5 and a summary of the fitted parameter results are given in Table 3. […] Samples were prepared in PBS buffer (90 micromolar) and centrifuged to equilibrium at speeds of 42,000 (51), 50,000 (52), and 60,000 (53) rpm.

Data set [8] can be described thus: Circular dichroism (wavelength- and temperature-dependent) of aPP variants, Example 1. The following applies: 30 micromolar. The format is physicochemical. On the procedure:
The CD spectra of each peptide (30 micromolar) were acquired in Tris buffer (25 mM Tris base, 50 mM NaCl, (pH 8.0)) at 25° C. in a 2 mm cell. Samples were scanned between 200 and 260 nm, with signal sampling every 0.5 nm, and three successive scans were averaged. Molar residue ellipticity values were calculated from the equation MRE=(Θsample−Θbuffer)/(L×c×n×1000), where Θ is the observed signal in millidegrees, L is the length of the cuvette in cm, c is the concentration of peptide in dmol cm^−3 and n is the number of amino acids in the molecule.
Temperature-dependent CD spectra of aPP^Y7AP13SV14P (30 micromolar) were acquired in Dulbecco's PBS (1 mM KH2PO4, 155 mM NaCl, 3 mM Na2HPO4, (pH 7.4)) in a 2 mm cell. The signal at 222 nm (MRE222) was monitored between 1° C. and 80° C. using the variable temperature module provided with the instrument. Data were collected with a 0.5° C. data pitch, 5 s delay time, 20° C./hour temperature slope, 4 s response, and 1 nm bandwidth. CD spectra were obtained as the temperature was raised and when the temperature was lowered to establish the reversibility of the folding transition. Additionally, a full wavelength scan was obtained before and after the thermal melt; an overlay of the two spectra is shown in FIG. 3A. […] Mean residue ellipticity values for the temperature dependent CD spectrum were calculated from the equation MRE=Θ222 nm/(L×c×n×1000), where Θ is observed signal at 222 nm (mdeg), L is the length of, the cuvette (cm), c is the concentration of peptide (dmol/cm^3) and n is the number of amino acids in the molecule. The first derivatives of the temperature-dependent CD spectra are shown in FIG. 3B, which is a plot of δMRE222/δT (units of deg cm^2 dmol^−1 K^−1). The Tm value reported in the main text corresponds to the temperature at which ∂MRE222/∂T is a maximum.
On the technique in general: Circular dichroism is the unequal absorption of left and right circularly polarised light.

For data set [9] the following is noted: pH- and temperature-dependent; read-out: equilibrium dissociation constant (Kd) of the aPP dimer; cited from earlier work.
A short description of data set [10]: Sedimentation equilibrium analytical ultracentrifugation of aPP variants, monomer-n-mer fit (self-association). The format is physicochemical. Here is the method: Analytical ultracentrifugation experiments were performed using peptide solutions prepared in Tris.Cl buffer (25 mM Tris base, 50 mM NaCl, (pH 8.0)) at the appropriate concentrations (5 micromolar to 200 micromolar). Samples were then centrifuged to equilibrium at 25° C. at 42,000, 50,000, and 60,000 rpm. Data were collected with a 0.001 cm step size and successive scans were initiated at 2 h intervals. Samples were judged to have reached equilibrium when the radial concentration gradient remained unchanged over three successive scans using the Match module of Heteroanalysis software v1.1.19. The solvent density (ρ, rho) and partial specific volume ( ν, nu) were calculated using the Sedimentation Interpretation Program “Sednterp” software v1.08.
The data for each peptide (multiple concentrations at three speeds) was first fit globally to an equation describing the sedimentation of an ideal species of molecular weight Mn (Eq. 1) using Heteroanalysis software v1.1.19:
where C represents the concentration of the sedimenting species at distances r and r0 cm from the center of rotation; ν (nu) is the partial specific volume of the sedimenting species in cc/g; ρ (rho) is the density of the supporting buffer in g/cc; ω (omega) is the angular velocity of the rotor (radians/s); Mn is the “molar” molecular weight of sedimenting species (g/mol); R is the universal gas constant (8.315×10^7 ergs K^−1 mol^−1) and T is the temperature in degrees Kelvin.
In order to quantify this self-association, the data for each peptide was next fit globally to a monomer-n-mer equilibrium model using Eq. 2:
where n is the stoichiometry of the self-associated complex. Errors were calculated for n and lnKA using f-statistics to two standard deviations.
Samples were prepared in PBS buffer and centrifuged at speeds of 42,000 (41), 50,000 (42), or 60,000 RPM (43) at 25° C. Experimental data are shown as points; lines indicate the best fit to a monomer-n-mer model described by Eq. 2.

No end group written: not given here. A value given as a limit tells only on which side of the number the result lay.

Sequence of Fyn SH3 domain-GST fusion protein (P06241 81-142): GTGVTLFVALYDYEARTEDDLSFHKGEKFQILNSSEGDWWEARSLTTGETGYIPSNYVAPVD
Sequence of Lyn SH3 domain-GST fusion protein (P07948 62-122): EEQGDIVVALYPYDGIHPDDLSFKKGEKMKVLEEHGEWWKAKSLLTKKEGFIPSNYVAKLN
Sequence of Hck SH3 domain-GST fusion protein (P08631 77-137): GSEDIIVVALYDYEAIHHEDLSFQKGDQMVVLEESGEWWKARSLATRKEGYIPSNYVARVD
Sequence of Lck SH3 domain-GST fusion protein (P06239 62-128): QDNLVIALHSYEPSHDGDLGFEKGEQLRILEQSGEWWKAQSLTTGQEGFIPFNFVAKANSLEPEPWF

On to `CC(C)C[C@H](NC(=O)[C@@H]1CCCN1C(=O)[C@@H]1CCCN1C(=O)[C@H](C)NC(=O)CNC(=O)CNC(=O)[C@@H](N)CSCC(=O)Nc1ccc2c(c1)C(=O)OC21c2ccc(O)cc2Oc2cc(O)ccc21)C(=O)N1CCC[C@H]1C(=O)N1CCC[C@H]1C(=O)N[C@@H](CCCNC(=N)N)C(=O)N[C@@H](CC(N)=O)C(=O)N[C@@H](CCCNC(=N)N)C(=O)N1CCC[C@H]1C(=O)N[C@@H](CCCNC(=N)N)C(N)=O` [^Flu1], for which the Kd in data set [1] is 1500 ± 100 nM; in [2], 1400 ± 200 nM; in data set [3], over 20 µM; in [4] it was 1600 ± 200 nM; in data set [5], 2000 ± 300 nM; in [6], over 100 µM.
For the compound “GPSQPTAPGDDASPEDLIRFYDNLQQYLNVVTRHRY [aPP^Y7AP13SV14P]”, the “n (monomer-n-mer fit, Eq. 2)” value in [7] (5° C.) is listed as 2.5; in data set [7] (30° C.), 3.6. The “% monomer” value is 74% in data set [7] (5° C.); 82% in [7] (10° C.); 84% in data set [7] (15° C.); 90% in [7] (20° C.); 90% in data set [7] (25° C.); 98% in [7] (30° C.). In addition, the “ln KA (m)” value in [7] (5° C.) is 25.7 (25.3, 26.0); in data set [7] (10° C.), 25.3 (25.0, 25.5); in data set [7] (15° C.), 25.6 (25.4, 25.8); in [7] (20° C.), 25.0 (24.8, 25.2); in [7] (25° C.), 25.7 (25.4, 26.0); in [7] (30° C.), 24.4 (24.2, 24.5). The “KD (tetramer, monomer/dimer/tetramer model)” value in [7] (25° C.) is 6.8×10^−12 M^3. The “% dimer” value in data set [7] (25° C., at 30 micromolar) came out at 9%. Moreover, the “% tetramer” value in data set [7] (25° C., at 30 micromolar) is listed as 1%. The CD ellipticity at 222 nm in data set [8] (Tris buffer pH 8.0, 25° C.) is -9700 deg cm^2 dmol^−1. For the same compound, the “Tm (cooperative unfolding transition)” value in data set [8] (temperature-dependent CD at 222 nm) came out at 20 °C.
As for “avian pancreatic polypeptide (GPSQPTYPGDDAPVEDLIRFYDNLQQYLNVVTRHRY; ends and bridges not checked) [aPP, purchased from American Peptide Company, reference compound]”, in data set [9], the Kd was 0.4 to 5000 nM. Besides, the “% monomer at 30 μM” value in [10] (30 μM peptide, 25° C.) was determined as 23%. For the same compound, in [10] (30 micromolar), the “% in the dimer state at 30 micromolar” value is over 94%. Further, the “lnKA when n = 2” value in [10] (monomer-dimer, 25° C.) is reported as “when n = 2 12.41”. The “n (stoichiometry of the self-associated complex)” value in data set [10] (monomer-n-mer fit, 25° C.) was determined as 1.92. Moreover, the “Kd (self-association, dimer)” value in data set [10] (n = 2, 25° C., calculated from ln KA) was 4.1 µM.

The record behind these values is patent US20100273722A1, “MODIFIED MINIATURE PROTEINS” (Yale University, priority 2007, published 2010).
